# Patent US20230174584A1, “Antibiotic Compounds” (priority 2019, published 2023)
# Read-outs that look alike come from different tables or passages of the source.
# Tests used:
# [1] = test system: S. aureus 880 (BR-VRSA), NR-49120; assay: MIC assay; type: cell-based, Staphylococcus aureus; conditions: S. aureus 880, NR-49120 VRSA
# Method: (§1) The antibacterial activity of the compounds was tested against a panel of bacteria, including Gram-positive bacteria (S. aureus ATCC29213, S. aureus USA300, S. aureus LIM-2, NR-45881, S. aureus HIP13419, NR-46413, E. faecium E155, E. faecium E7314, E. faecium E980, E. faecalis E1246, E. faecalis E7406 and S. pneumonia 153). The antibacterial activity of the compounds was further tested against S. aureus NY-155, NR-46236, S. aureus HIP12864, NR-46074, S. aureus 880 (BR-VRSA), NR-49120, E. faecalis E1246, E. faecalis E7604, as well as some Gram-negative bacteria (Escherichia coli and Klebsiella pneumoniae). Minimum inhibitory concentrations (MICs) in μg/mL were performed according to the CLSI guidelines. From glycerol stocks, bacterial strains were cultured on blood agar plates and incubated at 37° C. for 18 h. A single colony was transferred to tryptic soy broth (TSB) with 0.002% polysorbate 80 (p80). For the Enterococcus, VISA and VRSA strains, the cultures were grown at 37° C. until the optical density of the suspension reached a level equivalent to the 0.5 McFarland standard. The bacterial suspensions were diluted in TSB with 0.002% p80 to reach a bacterial cell density of 10^6 CFU/mL. In case of the other (vancomycin-sensitive) S. aureus strains, the direct colony suspension method was used. For these strains, after transfer of the colonies to TSB with 0.002% p80, they were immediately diluted to 10^6 CFU/mL, instead of incubated prior to this dilution. In the case of S. pneumonia, direct colony suspension was used by immediately suspending multiple colonies from fresh blood agar plates in TSB+0.002% p80 to an OD600 of 0.5 and subsequent dilution to 10^6 CFU mL^−1 in TSB+0.002% p80+5% lysed horse blood. Antibiotic dilutions for this strains were also made in TSB+0.002% p80+5% lysed horse blood. Both agar and microplates containing S. pneumonia were incubated at 37° C. with 5% CO2 for 24 h with constant shaking (600 rpm). […] The cultures were grown to exponential phase (OD600=0.5) at 37° C. […] In polypropylene 96-well microtiter plates, test compounds were added in biological triplicates and serial diluted 2-fold by transfer and mixing from one well to the next to achieve a final volume of 50 μL per well. An equal volume of bacterial suspension (10^6 CFU mL^−1) was added to the wells. The plates were sealed with breathable membranes and incubated at 37° C. for 24 h with constant shaking (600 rpm). In polypropylene microtiter plates, 100 μL of the test compounds was added to the first row in biological triplicates, and 50 μL of media was added to the other wells. The compounds were subjected to serial dilution by transfer and mixing of 50 μL from one well to the next. Subsequently, 50 μL of bacterial suspension (10^6 CFU/mL) was added to the wells. The plates were sealed with breathable membranes and incubated at 37° C. for 24 h with constant shaking (600 rpm). Positive growth control consisted of wells with bacterial suspension and without antibiotic. Negative growth control consisted of solely media without bacterial suspension or antibiotic. The MICs were determined from the median of a minimum of triplicates.
# S. aureus ATCC29213 = assay: MIC assay; type: cell-based, Staphylococcus aureus
# Method: as §1
# [2] = test system: S. aureus HIP12864, NR-46074; assay: MIC assay; type: cell-based, Staphylococcus aureus; conditions: S. aureus HIP12864, NR-46074 VISA
# Method: as §1
# [3] = test system: S. aureus LIM-2, NR-25881; assay: MIC assay; type: cell-based, Staphylococcus aureus; conditions: S. aureus LIM-2, NR-25881 VISA
# Method: as §1
# [4] = test system: S. aureus NY-155, NR-46236; assay: MIC assay; type: cell-based, Staphylococcus aureus; conditions: S. aureus NY-155, NR-46236 MRSA
# Method: as §1
# [5] = test system: S. aureus HIP13419, NR-46413; assay: microbe, parasite or virus in culture; type: cell-based, Staphylococcus aureus
# Method: as §1
# S. aureus USA300 = assay: microbe, parasite or virus in culture; type: cell-based, Staphylococcus aureus
# Method: as §1
# E. faecium E980 = assay: MIC assay; type: cell-based, Enterococcus faecium
# Method: as §1
# E. faecium E7314 = assay: microbe, parasite or virus in culture; type: cell-based, Enterococcus faecium
# Method: as §1
# E. faecalis E1246 = assay: MIC assay; type: cell-based, Enterococcus faecalis
# Method: as §1
# E. faecalis E7406 = assay: microbe, parasite or virus in culture; type: cell-based, Enterococcus faecalis
# Method: as §1
# E. faecalis E7604 = assay: microbe, parasite or virus in culture; type: cell-based, Enterococcus faecalis
# Method: as §1
# S. pneumoniae 153 = assay: MIC assay; type: cell-based; conditions: S. pneumoniae 153, TSB+0.002% p80+5% lysed horse blood
# Method: as §1
# MRSA USA300 = assay: MIC assay in the presence of sheep serum; type: cell-based, Staphylococcus aureus; conditions: MRSA USA300, TSB + 0.002% p80 + 50% sheep serum
# Method: as §1
# The activity of the compounds was further assessed against MRSA USA300 strain in the presence of sheep) serum in another MIC assay. The cultures that grew in the presence of serum used TSB+0.002% P80+50% sheep serum as growth media, as opposed to normal MICs done in only TSB+0.002% P80.
# E. faecium E155 = assay: microbe, parasite or virus in culture; type: cell-based, Enterococcus faecium
# Method: as §1
# [6] = S. aureus HIP13419, NR-46413 VRSA
# [7] = E. faecalis E1246 VRE (VanA), Table 7
# [8] = E. faecalis E1246 VRE (vanA), Table 9
# [9] = Staphylococcus aureus, read-out: MIC
Molecule,MIC [1] [µg/mL],MIC (S. aureus ATCC29213; S. aureus ATCC29213 MSSA) [µg/mL],MIC [2] [µg/mL],MIC [3] [µg/mL],MIC [4] [µg/mL],"MIC [5, 6] [µg/mL]","MIC (S. aureus USA300; MRSA USA300, TSB + 0.002% p80) [µg/mL]",MIC (S. aureus USA300; S. aureus USA300 MRSA) [µg/mL],MIC (E. faecium E980; E. faecium E980 VSE) [µg/mL],MIC (E. faecium E7314; E. faecium E7314 VRE (VanB)) [µg/mL],MIC (E. faecalis E1246; [7]) [µg/mL],MIC (E. faecalis E1246; [8]) [µg/mL],MIC (E. faecalis E7406; E. faecalis E7406 VRE (VanB)) [µg/mL],MIC (E. faecalis E7604; E. faecalis E7604 VRE (vanB)) [µg/mL],MIC (S. pneumoniae 153) [µg/mL],MIC (MRSA USA300) [µg/mL],MIC (E. faecium E155; E. faecium E155 VRE (VanA)) [µg/mL],other results
Teicoplanin [reference compound],16,0.5,4,16,0.5,32,0.5,0.5,0.5,0.25,>128,>128,0.125,0.125,0.031,2,–,–
CCCCN(CCCC)C(N)=Nc1ccc(CN[C@@]2(C)C[C@H](O[C@H]3[C@H](Oc4c5cc6cc4Oc4ccc(cc4Cl)[C@@H](O)[C@@H](NC(=O)[C@@H](CC(C)C)NC)C(=O)N[C@@H](CC(N)=O)C(=O)N[C@H]6C(=O)N[C@H]4C(=O)N[C@H](C(=O)N[C@H](C(=O)O)c6cc(O)cc(O)c6-c6cc4ccc6O)[C@H](O)c4ccc(c(Cl)c4)O5)O[C@H](CO)[C@@H](O)[C@@H]3O)O[C@@H](C)[C@H]2O)cc1 [Compound 11],64,0.125,1,0.5,0.063,16,0.125,0.125,0.0625,0.5,>128,>128,8,8,0.063,0.063,32,–
"CN[C@H]1C(=O)N[C@@H]2Cc3ccc(cc3)Oc3cc4cc(c3O[C@@H]3O[C@H](C(=O)O)[C@@H](O)[C@H](O)[C@H]3NC(=O)CCCCCCCCC(C)C)Oc3ccc(cc3Cl)[C@@H](O)[C@@H]3NC(=O)[C@H](NC(=O)[C@@H]4NC(=O)[C@@H](NC2=O)c2cc(cc(O)c2Cl)Oc2cc1ccc2O)c1ccc(O)c(c1)-c1c(O[C@H]2O[C@H](CO)[C@@H](O)[C@H](O)[C@@H]2O)cc(O)cc1[C@@H](C(=O)NCCCN(C)C)NC3=O [Dalbavancin, reference compound]",–,–,–,–,–,–,–,–,–,–,–,>128,–,–,–,–,–,"MIC [1, 9]: 2 µg/mL; MIC (S. aureus ATCC29213; Staphylococcus aureus, ATCC 29213 / MSSA): 0.25 µg/mL; MIC [2, 9]: 0.5 µg/mL; MIC [3, 9]: 1 µg/mL; MIC [4, 9]: ≤ 0.008 µg/mL; MIC ([5]; Staphylococcus aureus, VRSA): 16 µg/mL; MIC (S. aureus USA300; Staphylococcus aureus, MRSA / USA300): 0.25 µg/mL; MIC (E. faecium E980; Enterococcus faecium, E980): 0.0625 µg/mL; MIC (E. faecium E155; Enterococcus faecium, VRE): 128 µg/mL; MIC (E. faecium E7314; Enterococcus faecium, VRE): 0.0156 µg/mL; MIC (E. faecalis E1246; Enterococcus faecalis, E. faecalis E1246 VRE (VanA), Table 7, read-out: MIC): > 128 µg/mL; MIC (E. faecalis E7406; Enterococcus faecalis, VRE): 0.0312 µg/mL; MIC (E. faecalis E7604; Enterococcus faecalis, VRE): 0.031 µg/mL; MIC (S. pneumoniae 153; Streptococcus pneumoniae, read-out: MIC): ≤ 0.008 µg/mL; MIC (MRSA USA300; Staphylococcus aureus, 24 h, read-out: MIC): 2 µg/mL"
CN[C@H](CC(C)C)C(=O)N[C@H]1C(=O)N[C@@H](CC(N)=O)C(=O)N[C@H]2C(=O)N[C@H]3C(=O)N[C@H](C(=O)N[C@H](C(=O)O)c4cc(O)cc(O)c4-c4cc3ccc4O)[C@H](O)c3ccc(c(Cl)c3)Oc3cc2cc(c3O[C@@H]2O[C@H](CO)[C@@H](O)[C@H](O)[C@H]2O[C@H]2C[C@](C)(NCc3ccc(N=C(N)NCC45CC6CC(CC(C6)C4)C5)cc3)[C@H](O)[C@H](C)O2)Oc2ccc(cc2Cl)[C@H]1O [Compound 18],2,≤0.008,≤0.016,0.016,≤0.008,2,≤0.008,≤0.008,≤0.008,≤0.008,16,16,≤0.008,≤0.008,≤0.008,0.031,2,–
CCCCCCCCCCN(CCCCCCCCCC)C(N)=Nc1ccc(CN[C@@]2(C)C[C@H](O[C@H]3[C@H](Oc4c5cc6cc4Oc4ccc(cc4Cl)[C@@H](O)[C@@H](NC(=O)[C@@H](CC(C)C)NC)C(=O)N[C@@H](CC(N)=O)C(=O)N[C@H]6C(=O)N[C@H]4C(=O)N[C@H](C(=O)N[C@H](C(=O)O)c6cc(O)cc(O)c6-c6cc4ccc6O)[C@H](O)c4ccc(c(Cl)c4)O5)O[C@H](CO)[C@@H](O)[C@@H]3O)O[C@@H](C)[C@H]2O)cc1 [Compound 13],8,16,16,32,16,8,16,16,4,4,32,32,4,4,2,64,8,–
CCCCCCNC(N)=Nc1ccc(CNC2(C)CC(OC3C(Oc4c5cc6cc4Oc4ccc(cc4Cl)C(O)C4NC(=O)C(NC(=O)C6NC(=O)C(CC(N)=O)NC(=O)C(NC(=O)C(CC(C)C)NC)C(O)c6ccc(c(Cl)c6)O5)c5ccc(O)c(c5)-c5c(O)cc(O)cc5C(C(=O)O)NC4=O)OC(CO)C(O)C3O)OC(C)C2O)cc1 (stereo not shown) [Compound 4],16,0.0625,0.5,0.25,0.063,4,0.063,0.0625,0.03125,0.03125,32,32,0.25,0.25,0.016,0.063,8,–
